# Tests used:
# [1] = Methylselenol (CH3SeH) release by hydrolysis, quantified with DTNB (Ellman's reagent); type: physicochemical; details: 100 μM compound, 100 μM DTNB
# Description: The new compounds were designed as CH3SeH precursors. The chemical features of the selenoester functional group facilitate a nucleophilic attack (i.e., with water) which would deliver the CH3SeH residue. In order to verify if CH3SeH could be released from the molecules by hydrolysis and if the rate differed among the compounds, the reaction of CH3SeH with 5,5′-dithiobis(2-nitrobenzoic acid) (DTNB or Ellman’s reagent) in aqueous environment was monitored. Briefly, when the disulfide bridge of DTNB reacts with thiols or selenols, 2-nitro-5-thiobenzoate (TNB^2−) is released and the mixed disulfide or selenylsulfide is formed. Each released CH3SeH produces one yellow TNB^2− species, whose absorbance can be quantified at 412 nm (Figure 2A).
# A stock solution of the compounds was prepared in anhydrous DMSO (10 mM). The compounds were placed in a 96-well plate in a final concentration of 100 μM. Reaction started after adding 200 μL of an aqueous 100 mM Na2HPO4 buffer (1 mM EDTA, pH = 8), containing 100 μM of DTNB from a freshly prepared 10 mM ethanolic stock, which were added just before starting the reaction. The DTNB concentration was quantified with a cysteine standard curve ([…]). Blanks for the compounds in the absence of DTNB were also included as well as a blank to measure the slow but spontaneous hydrolysis of DTNB, which was further subtracted from all the values. Absorbance was read at 412 nm in a FLUOstar Omega microplate reader (BMG LabTech, Ortenberg, Germany). Results represent means of triplicate values ± SD.
# Figure 2 CH3SeH release rates are dependent on the chemical features of the molecule. Released CH3SeH was quantified through reaction with Ellman’s reagent (DTNB). (A) Proposed reaction between CH3SeH and DTNB; (B) Quantification of TNB^2− at different times. The compounds were tested at 100 μM in 200 μL of 100 mM phosphate buffer (1 mM EDTA, pH = 8). DTNB concentration was also 100 μM. Absorbance was followed at 412 nm over 72 h. A cysteine standard curve (7.5–150 μM) was used to calculate the concentration of TNB^2− over time. Compounds showing less than 15% hydrolysis at 72 h are not included, except for compound 5 as example. Error bars indicate SD of triplicates.
# [2] = system: PC-3 (prostate adenocarcinoma); test: MTT viability assay, PC-3; type: cell-based; details: PC-3, 72 h, MTT; for CC50: read-out: LC50 (the source's name)
# Description: (§1) The novel compounds were tested against a panel of different cancer lines: PC-3 (prostate adenocarcinoma), MCF7 (mammary adenocarcinoma), HTB-54 (lung carcinoma), K-562 (chronic myelogenous leukemia) and HT-29 (colorectal adenocarcinoma). Two non-malignant cell lines, BEAS-2B (bronchial epithelial) and 184B5 (mammary epithelial) were also included to evaluate the toxicity of the novel synthesized compounds. The antiproliferative activity was measured with the [3-(4,5-dimethylthiazol-2-yl)-2,5-diphenyltetrazolium bromide] (MTT) assay after 72 h treatment. Six concentrations ranging from 0.1 to 100 μM were tested. MSA is largely known as the main CH3SeH putative precursor and was therefore included as positive control. The following parameters were calculated: GI50 (concentration which reduces the growth by 50%), TGI (concentration completely inhibiting growth) and LC50 (concentration that kills 50% of the cells).
# (§2) All cells were purchased from the American Type Culture Collection (ATCC, Barcelona, Spain). HT-29 (colorectal adenocarcinoma), HTB-54 (grade III lung carcinoma), MCF7 (mammary adenocarcinoma), PC-3 (grade IV prostate adenocarcinoma) and K-562 (chronic myelogenous leukemia) were cultured in RPMI (Gibco, Madrid, Spain), 10% FBS (Gibco), 100 units/mL penicillin and 100 μg/mL streptomycin (Gibco). BEAS-2B cell line (normal epithelial lung) was cultured in DMEM (Gibco), 10% FBS, 100 units/mL penicillin and 100 μg/mL streptomycin. 184B5 (normal mammary gland) cell line was cultured in DMEM:F12 supplemented with 5% FBS, 1 × ITS (Lonza, Barcelona, Spain), 100 nM hydrocortisone (Sigma-Aldrich), 2 mM sodium pyruvate (Lonza), 20 ng/mL EGF (Sigma-Aldrich), 0.3 nM trans-retinoic acid (Sigma-Aldrich), 100 units/mL penicillin and 100 µg/mL streptomycin. Cells were cultured at 37 °C under 5% CO2.
# (§3) Cell viability after treatment was assessed by the well-known 3-(4,5-dimethyl-thiazol-2-yl)-2,5-diphenyltetrazolium bromide (MTT, Sigma-Aldrich) assay. Briefly, 10,000 cells were seeded in 96-well plates, treated and incubated for 72 h. Dilutions of the compounds in cell medium were freshly prepared from a 0.01 M stock in DMSO. After treatment, 50 μL of MTT solution in PBS (2 mg/mL) were added and cells were incubated for 4 h. Medium was removed and 150 μL of DMSO was added to dissolve the formed formazan crystals. Absorbance was read at 550 nm in a microplate absorbance reader (Sunrise, Tecan, Männedorf, Switzerland).
# [3] = system: HT-29 (colorectal adenocarcinoma); test: MTT viability assay, HT-29; type: cell-based; details: HT-29, 72 h, MTT; for CC50: read-out: LC50 (the source's name)
# Description: as §1, §2, §3
Substance,"CH3SeH release / hydrolysis rate ([1]; 100 mM phosphate buffer, 1 mM EDTA, pH 8, followed over 72 h)",GI50 [2],CC50 [2],GI50 [3],TGI [3],CC50 [3],"hydrolysis at 72 h ([1]; phosphate buffer pH 8, 72 h)",TGI [2]
"Dimethyl 2,5-furandicarboselenoate [Compound 15]",more sustained release,4.8 ± 0.8 µM,47.8 ± 4.4 µM,3 ± 0.5 µM,6.6 ± 0.4 µM,35.8 ± 5 µM,,
Methyl 3-chlorothiophen-2-carboselenoate [Compound 5],,8.6 ± 1.7 µM,91.6 ± 3.9 µM,3.6 ± 0.3 µM,6.3 ± 0.2 µM,8.9 ± 0.2 µM,less than 15%,47.7 ± 2.9 µM
